In article PMC8041284, “Tunable Methacrylamides for Covalent Ligand Directed Release Chemistry” (Journal of the American Chemical Society, 2021):
Like-named read-outs stand apart in the source and are kept apart here. Blank lines part the entries; values can stand above or below the compound they belong to. Where a SMILES comes first, the peptide text is derived from it. The star is where a group is joined. Cbz = O=C(OCc1ccccc1)*; CH2F = FC*

Target: BTK (Homo sapiens, UniProt Q06187)
Assay: biochemical
[1] = read-out: BTK inhibition (%), 0.75 uM BTK, […] probe 3l, 15 min preincubation

Sequence of BTK (Q06187 402-655 limits assumed): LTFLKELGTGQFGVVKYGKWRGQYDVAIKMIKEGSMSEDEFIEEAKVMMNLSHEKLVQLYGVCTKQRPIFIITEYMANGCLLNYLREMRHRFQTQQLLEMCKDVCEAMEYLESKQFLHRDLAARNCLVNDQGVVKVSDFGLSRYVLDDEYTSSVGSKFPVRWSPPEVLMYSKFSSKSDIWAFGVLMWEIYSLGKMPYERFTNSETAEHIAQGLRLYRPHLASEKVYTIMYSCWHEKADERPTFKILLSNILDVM

Structure (SMILES): CC(C)n1c([C@H](C)Nc2ncnc(N)c2C#N)cc2cccc(-c3ccc(=O)n(C)c3)c2c1=O [PCM-0215961]
inhibition at 10 µM [1]: -11.6%

Structure (SMILES): C=CCc1cc(OC)c(O)c(C(=O)NCCO)c1 [PCM-0095214]
inhibition at 10 µM [1]: -16.3%

Structure (SMILES): FC(F)(F)Oc1ccc2nc(-c3ccc(OCCOCCOc4ccc(-c5nc6ccc(OC(F)(F)F)cc6[nH]5)nc4)cn3)[nH]c2c1 [PCM-0215500]
inhibition at 10 µM [1]: 32.4%

Structure (SMILES): c1ccc([C@H]2CN3CCSC3=N2)cc1 [PCM-0065508]
inhibition at 10 µM [1]: 17.9%

Structure (SMILES): Cc1cccc(CC(=O)N2CCc3c2ccc(-c2cn(C)c4ncnc(N)c24)c3F)n1 [PCM-0095729]
inhibition at 10 µM [1]: -9%

Structure (SMILES): Oc1cc(O)c2c(c1)O[C@H](c1ccc(O)c(O)c1)[C@@H](O)C2 [PCM-0064631]
inhibition at 10 µM [1]: 37.4%

Structure (SMILES): c1ccc2c(c1)[I+]c1ccccc1-2 [PCM-0215888]
inhibition at 10 µM [1]: -0.7%

Structure (SMILES): C[C@@H](Oc1ccc2[nH]nc(/C=C/c3cnn(CCO)c3)c2c1)c1c(Cl)cncc1Cl [PCM-0215376]
inhibition at 10 µM [1]: 101%

Structure (SMILES): N[C@@H](C(=O)N[C@@H]1C(=O)N2C(C(=O)O)=C(Cl)CS[C@H]12)c1ccccc1 [PCM-0214861]
inhibition at 10 µM [1]: -13.2%

Structure (SMILES): O=C(O)c1cc(=O)cc(C(=O)O)o1 [PCM-0216206]
inhibition at 10 µM [1]: -6.2%

Structure (SMILES): O=C(NC1CCOCC1)c1ccc(-c2cc(-c3cn[nH]c3-c3ccccn3)ccn2)cc1 [PCM-0095490]
inhibition at 10 µM [1]: 1.6%

Structure (SMILES): Cc1cc(C)nc(NC(=S)N2CCN(Cc3ccc(C(F)(F)F)cc3)CC2)c1 [PCM-0215867]
inhibition at 10 µM [1]: -17%

Structure (SMILES): Cc1c(Cc2ccc3ccccc3n2)c2cc(F)ccc2n1CC(=O)O [PCM-0214780]
inhibition at 10 µM [1]: 8.6%

Structure (SMILES): O=c1c(-n2ccnn2)c[nH]n1-c1cc(N2CCOCC2)ncn1 [PCM-0215593]
inhibition at 10 µM [1]: -16.2%

Structure (SMILES): Cl[Te]1(Cl)(Cl)OCCO1 [PCM-0215721]
inhibition at 10 µM (read-out: BTK inhibition (%)): 98.6%

Structure (SMILES): c1cc(CN2CCCNCCNCCCNCC2)ccc1CN1CCCNCCNCCCNCC1 [PCM-0095456]
inhibition at 10 µM [1]: 6.8%

Structure (SMILES): O=[N+]([O-])c1ccc2c(c1)S(=O)(=O)C=C2 [PCM-0065368]
inhibition at 10 µM [1]: 40.9%

Structure (SMILES): N#CC[C@@H](C1CCCC1)n1cc(-c2ncnc3[nH]ccc23)cn1 [PCM-0095369]
inhibition at 10 µM [1]: 15.9%

Structure (SMILES): O=C(O)CCNc1cc(N2CCc3ccccc3CC2)nc(-c2ccccn2)n1 [PCM-0215478]
inhibition at 10 µM [1]: -3.1%

Structure (SMILES): Oc1cccc(O)c1O [PCM-0214990]
inhibition at 10 µM [1]: -12.4%

Structure (SMILES): Cc1c[nH]c2nc(Nc3ccc(N4CCN(C)CC4)c(F)c3)nc(-c3cccc(CC#N)c3)c12 [PCM-0215633]
inhibition at 10 µM [1]: 92.4%

Structure (SMILES): CN(C(=O)CNC(=O)/C=C/c1cccc(Cl)c1)C1CCS(=O)(=O)CC1 [PCM-0215630]
inhibition at 10 µM [1]: -13.9%

Structure (SMILES): NC(=O)c1[nH]cnc1N [PCM-0214903]
inhibition at 10 µM [1]: -43.6%

Structure (SMILES): Cc1ccc(C(C)C)cc1 [PCM-0216218]
inhibition at 10 µM [1]: -20.1%

Structure (SMILES): Cc1nc(-c2ccc(OCC(C)C)c(C#N)c2)sc1C(=O)O [PCM-0090390]
inhibition at 10 µM [1]: -3.4%

Structure (SMILES): CNCCC(Oc1ccc(C(F)(F)F)cc1)c1ccccc1 (centres unmarked) [PCM-0065327]
inhibition at 10 µM [1]: -7.8%

Structure (SMILES): CC[C@H](Nc1ncnc2nc[nH]c12)c1nc2cccc(F)c2c(=O)n1-c1ccccc1 [PCM-0095266]
inhibition at 10 µM [1]: -5.5%

Structure (SMILES): O=C1[C@H]2CCCC[C@H]2C(=O)N1CCCCN1CCN(c2nsc3ccccc23)CC1 [PCM-0216064]
inhibition at 10 µM [1]: -9.3%

Structure (SMILES): O=c1nc(N2CCOCC2)oc2c(-c3cccc4c3sc3ccccc34)cccc12 [PCM-0215826]
inhibition at 10 µM [1]: -1.4%

Structure (SMILES): O=C(NCCO[N+](=O)[O-])c1cccnc1 [PCM-0085806]
inhibition at 10 µM [1]: -5.4%

Structure (SMILES): CN1C[C@@H]2c3ccccc3Oc3ccc(Cl)cc3[C@H]2C1 [PCM-0095064]
inhibition at 10 µM [1]: 9.3%

Structure (SMILES): O=C(c1cccc(Cl)c1F)N1CCN(Cc2cccc(Nc3nccs3)n2)CC1 [PCM-0215281]
inhibition at 10 µM [1]: 68.3%

Further lines, results first:

inhibition at 10 µM [1]: 7.7%
Structure (SMILES): N#Cc1ccc(COC[C@H]2O[C@@H](n3c(NCc4ccc(Cl)c(Cl)c4)nc4c(N)ncnc43)[C@H](O)[C@@H]2O)cc1 [PCM-0215474]

inhibition at 10 µM [1]: -5.4%
Structure (SMILES): CC(C)[C@H](NC(=O)OCc1ccccc1)C(=O)N[C@@H](C)C(=O)N[C@@H](CC(=O)O)C(=O)CF [PCM-0215591] (Cbz-Val-Ala-Asp-CH2F)

inhibition at 10 µM [1]: -16.2%
Structure (SMILES): CO/N=C(\C(=O)N[C@@H]1C(=O)N2C(C(=O)O)=C(CSc3nc(=O)c(O)nn3C)CS[C@H]12)c1csc(N)n1 [PCM-0215203]

inhibition at 10 µM [1]: -6.2%
Structure (SMILES): COc1ccc([C@@H]2OC[C@H]3[C@@H]2CO[C@@H]3c2ccc(O[C@@H]3O[C@H](CO)[C@@H](O)[C@H](O)[C@H]3O)c(OC)c2)cc1OC [PCM-0215021]

inhibition at 10 µM [1]: -20.8%
Structure (SMILES): CO[C@@H]1[C@@H](OC)[C@H](C)[C@@](O)(CC(=O)O)O[C@H]1[C@H](C)[C@H]1O[C@@]2(CC[C@@](C)([C@H]3CC[C@@](C)([C@@H]4O[C@@H]([C@H]5O[C@](C)(O)[C@H](C)C[C@@H]5C)C[C@@H]4O[C@@H]4C[C@H](OC)[C@@H](OC)[C@H](C)O4)O3)O2)C[C@H](O)[C@H]1C [PCM-0216004]

inhibition at 10 µM [1]: 35.5%
Structure (SMILES): COC(=O)c1ccc([C@H]2C3Nc4ccccc4C3C[C@H](C(=O)OC)N2C(=O)CCl)cc1 (some centres unmarked) [PCM-0214584]

inhibition at 10 µM [1]: -10%
Structure (SMILES): CCOC(=O)[C@H](CCc1ccccc1)N[C@@H](C)C(=O)N(CC(=O)O)C1Cc2ccccc2C1 [PCM-0216640]

inhibition at 10 µM [1]: -27.8%
Structure (SMILES): CC(C)(CO)c1cc2cc(NC(=O)C3(c4ccc5c(c4)OC(F)(F)O5)CC3)c(F)cc2n1C[C@@H](O)CO [PCM-0095580]

inhibition at 10 µM [1]: 31.7%
Structure (SMILES): CCOC(=O)c1ccc(NC2CCCCC2)c(N)c1 [PCM-0095725]

inhibition at 10 µM [1]: 9.4%
Structure (SMILES): CN[C@@H]1[C@H](O[C@H]2[C@H](O[C@H]3[C@H](O)[C@@H](O)[C@H](N=C(N)N)[C@@H](O)[C@@H]3N=C(N)N)O[C@@H](C)[C@]2(O)CO)O[C@@H](CO)[C@H](O)[C@H]1O [PCM-0085923]

inhibition at 10 µM [1]: 2.3%
Structure (SMILES): COC(=O)[C@@]1(C)CC[C@]2(C(=O)O)CC[C@]3(C)C(=CC[C@@H]4[C@@]5(C)C[C@H](O)[C@H](O[C@@H]6OC[C@@H](O[C@@H]7O[C@H](CO)[C@@H](O)[C@H](O)[C@H]7O)[C@H](O)[C@H]6O)[C@@](C)(CO)[C@@H]5CC[C@]43C)[C@@H]2C1 [PCM-0216472]

inhibition at 10 µM [1]: -27.2%
Structure (SMILES): CCCCC(=O)N(Cc1ccc(-c2ccccc2-c2nn[nH]n2)cc1)[C@H](C(=O)O)C(C)C [PCM-0090417]

inhibition at 10 µM [1]: 25.5%
Structure (SMILES): NC[C@H]1O[C@H](O[C@H]2[C@H](O[C@@H]3O[C@H](CO)[C@@H](O)[C@H]3O)[C@@H](O)[C@H](N)C[C@@H]2N)[C@H](N)[C@@H](O)[C@@H]1O [PCM-0215219]

inhibition at 10 µM [1]: 6.9%
Structure (SMILES): CCc1c2c(nc3ccc(OC(=O)N4CCC(N5CCCCC5)CC4)cc13)-c1cc3c(c(=O)n1C2)COC(=O)[C@]3(O)CC [PCM-0086493]

inhibition at 10 µM [1]: -9.7%
Structure (SMILES): COc1ccc(-c2cc3c(C)nc(N)nc3n(C3CCC(OCCO)CC3)c2=O)cn1 (centres unmarked) [PCM-0095467]

inhibition at 10 µM [1]: 5.4%
Structure (SMILES): O=c1ccn([C@@H]2O[C@H](CO)[C@@H](O)[C@@H]2O)c(=O)[nH]1 [PCM-0215072]

inhibition at 10 µM [1]: 8.6%
Structure (SMILES): CC/C=C(\C(=O)N[C@@H]1C(=O)N2C(C(=O)OCOC(=O)C(C)(C)C)=C(COC(N)=O)CS[C@H]12)c1csc(N)n1 [PCM-0215081]

inhibition at 10 µM [1]: 73.2%
Structure (SMILES): CCCCCCCCCCCCCCCC(=O)O[C@@H]1[C@@H](O)[C@@H](O)[C@@H]([C@H](NC(=O)[C@@H]2C[C@@H](CCC)CN2C)[C@H](C)Cl)O[C@@H]1SC [PCM-0215167]
